Assay results taken from patent US20020110808A1, “Toxicant-induced differential gene expression” (priority 2000, published 2002).
pIC50: −log10 of the molar value.

Legend:
[1] = system: HepG2 cells; assay: BrdU incorporation cell proliferation assay; assay type: cell-based; details: Homo sapiens
Procedure: HepG2 cells (see e.g., Aden et al., Nature 282:615-616 (1979)) (ATCC HB-8065) were maintained in DMEM/F-12 medium with 10% fetal bovine serum and 1% antibiotic/antimycotic. For routine culturing and mRNA preps, cells were grown in 75 cm^2 flasks and split every 4-5 days. For plate assays, cells were plated in 96-well microtiter plates at 1×10^5 cells per well in 100 μl of growth medium.
Depending on the desired exposure time, cell treatments began 3 or 4 days after splitting or plating. At this time, the cells were near or at confluency. […] Cell treatments were at 37° C.
Uptake of 5-bromo-2′-deoxyuridine (BrdU) was measured using the Cell Proliferation ELISA kit from Boehringer-Mannheim (Indianapolis, Ind.).
Cell proliferation assays based on measurement of BrdU incorporation were performed according to the manufacturer's instructions (Boehringer Mannheim “Cell Proliferation ELISA Kit”).

[2] = system: HepG2 cells; assay: Dot blot array expression assay; details: 24 hr, two-fold threshold
Procedure: The quality of the PCR reactions was assessed by agarose gel electrophoresis. Human genomic DNA (Clontech) and PCR products were robotically dotted in 100 nl aliquots onto positively-charged nylon membranes using the BioDot instrument (Cartesian Technologies, Inc.). After uv-crosslinking, the membranes were rinsed in 2× SSC and allowed to air-dry. Prior to addition of labeled cDNA probes, membranes were washed in boiling 1% SDS, rinsed with 6× SSC, and incubated in 5 mL of 42° C. Microhyb solution (Research Genetics) for 2 hr. Ten minutes prior to addition of the probes, the Microhyb solution was replaced with an equal amount of fresh 42° C. Microhyb solution containing denatured human Cot-1 DNA (Gibco BRL) and poly(dA) primer (Research Genetics) (both at final concentrations of 1 ng/μl).
For each reverse transcription reaction, 2 μg of mRNA was incubated with oligo(dT) primer (200 ng/μl) at 70° C. for 10 minutes. Tubes were chilled and spun briefly. The following reagents (with the final concentrations in parentheses) were added: first strand buffer (1×), DTT (10 mM), dNTP mix (1 mM each of dATP, dGTP, dTTP), [α-^33P]dCTP (3.3 μCi/μl) and Superscript II Reverse Transcriptase (10 units/μL). The samples were kept at 37° C. for 1.5 hr. Unincorporated nucleotides were removed by spinning the reaction mixture through a G-50 column. […] Probe quality was assessed by electrophoresis on a 10% denaturing polyacrylamide minigel. Denatured probes were added directly to the Microhyb solution and hybridized overnight at 42° C. Membranes were washed twice under each of the following conditions: (1) 2× SSC/0.1% SDS at room temperature, 5 min; (2) 0.2× SSC/0.1% SDS at room temperature, 5 min; (3) 0.2× SSC/0.1% SDS at 42° C., 15 min, (4) 0.1× SSC/0.1% SDS at 68° C., 15 min. Membranes were then rinsed briefly in 2× SSC at room temperature, covered with Saran wrap, and exposed to storage phoshpor screens. After three days, screens were scanned using a Storm phosphorimager (Molecular Dynamics). Images were analyzed using ImageQuant software (Molecular Dynamics).
We employed a rapid dot blot assay as a secondary screen for gene expression changes. We tested each of the unique clones against each of the three treatments. […] For these clones, the dot blot assay functioned not as a confirmation assay but as an initial screen for differential expression. Dot blots were prepared by robotically arraying subclone-derived PCR products in quadruplicate onto positively charged nylon membranes. […] In general, each dot consisted of over 80 ng of PCR product, as estimated by inspection of the PCR reactions run on agarose gels. This high quantity of DNA ensured that saturation of spots, with consequent loss of quantitation, would not occur. Spots of genomic DNA were included on each filter to allow normalization between control and treated sample intensities.

[3] = system: HepG2 cells; assay: cDNA array (GF200) expression profiling; assay type: cell-based, human; details: 20 mM acetaminophen, 16 mM caffeine, 100 mM thioacetamide
Procedure: Cells were grown in DMEM/F12 medium with 10% fetal bovine serum in tissue culture flasks for 3 days following splitting, at which time they were at or near confluency. […] For each treated sample, an untreated control flask was set up with the same medium. Following the treatment period, mRNA was isolated by affinity purification on oligo(dT) cellulose resin using the Poly(A) Pure mRNA isolation kit from Ambion. RNA quality was assessed by agarose gel electrophoresis, and yields were determined by absorbance at 260 nm.
Radiolabeled cDNA for array hybridizations were prepared as follows. To a solution of 2 μg of RNA in 8 μl DEPC-treated water was added 2 μl of 1 μg/μl oligo(dT) (10-20 mer mixture, Research Genetics). After incubation for 10 min at 70° C., the solution was chilled on ice for 2 min, and then added to 6 μl of 5× first strand buffer (250 mM Tris-HCl (pH 8.3), 375 mM KCl, 15 mM MgCl2; Gibco-BRL), 1 μl of 0.1M DTT, 1.5 μl dNTP mix (20 mM each dATP, dGTP and dTTP), 10 μl of 10 mCi/ml [α-^33P]dCTP (1000 Ci/mmol, Amersham), and 1.5 μl of 200 U/μl reverse transcriptase (Superscript II, Gibco-BRL). Following a 90 min incubation at 37° C., cDNA targets were purified by passage through G-50 Sephadex spin columns (Pharmacia) or Bio-Spin 6 columns (BioRad).
GF200 cDNA arrays (Research Genetics) were washed in 0.5% boiling SDS for 5 min and prehybridized for 3 hrs at 42° C. in 5 ml MicroHyb solution (Research Genetics) containing 5 μl of 1 μg/ml poly(dA) (Research Genetics) and 5 μl of 1 μg/ml human Cot-I DNA (Gibco-BRL) that was denatured for 3 min at 100° C. prior to use. Labeled target nucleic acids, boiled for 3 min, were added directly, and hybridization was allowed to proceed for 16-18 hr at 42° C. in roller bottles in hybridization ovens. Arrays were washed twice in 2× SSC, 1% SDS at room temperature for 2 min, and then twice in 0.5× SSC, 1% SDS at 65° C. for 20 min. Arrays were exposed to storage phosphor screens for 3 days and scanned using a phosphorimager (Molecular Dynamics). Arrays were stripped for reuse by placing in boiling 0.5% SDS and then incubating for 1.5 hr with shaking at room temperature, allowing to solution to cool. After stripping, arrays were exposed to storage phosphor screens overnight to confirm loss of signal.
Spot intensities were determined using Pathways software (Research Genetics). Data from quadruplicate sets of hybridizations were normalized by local regression using NLR software (Tom Kepler, North Carolina State University). Cluster analysis was carried out using the Clustan Graphics software package from Clustan Limited (Edinburgh).

Cn1c(=O)c2c(ncn2C)n(C)c1=O [caffeine]
inhibition at 16000 µM ([1]; HepG2, 24 h, read-out: Inhibition of BrdU uptake (cell proliferation)): 67 to 80%
pIC50 ([1]; HepG2, read-out: IC50, BrdU incorporation in HepG2 cells): ~2.22
Number of 27 unconfirmed or non-matching clones showing an expression change [2]: 7
Number of genes with statistically significant (p<0.05) change in expression in three or more adjacent time points ([3]; 1 to 24 hr time course): 158
Global differential gene expression (rms) over time ([3]; 1 to 24 hr): few changes until 6 hr, after which overall differential expression is fairly constant
